Data set [1] has as its target T1, Electrophorus electricus AChE (Electrophorus electricus, UniProt O42275).
T1 construct: purchased Sigma-Aldrich, USA Type VI-S
Kind of data set: biochemical. Particulars: for IC50: concentration producing 50% inhibition of enzyme activity, triplicate independent experiments; for inhibition at 1 µM: read-out: % Inhibition at concentration of 1 μM, 1 μM. The method, then: The AChE inhibitory activity of the synthesized compounds was evaluated by Ellman’s method using Electrophorus electricus AChE; donepezil hydrochloride and tacrine were used as the reference compounds.
AChE (Electrophorus electricus, Type VI-S, lyophilized powder) was purchased from Sigma-Aldrich, USA. Acetylthiocholine, 5,5′-dithiobis(2-nitrobenzoic acid), sodium dihydrogen phosphate, disodium hydrogen phosphate, and sodium hydrogen carbonate were obtained from Fluka, Switzerland. AChE inhibitory activity was […]
USA) based on Ellman’s method with slight modifications. For each assay, 200 μL of the assay medium containing 100 μL of 0.1 M phosphate buffer (pH 8), 20 μL of 3.3 mM 5,5′-dithiobis(2-nitrobenzoic acid) in 0.1 M phosphate buffer (pH 7) containing 6 mM NaHCO3, 20 μL of the test compounds at different concentrations in methanol, and 40 μL of 0.15 unit/mL AChE in phosphate buffer (pH 8) were incubated at 37 °C for 20 min. Subsequently, 20 μL of 5 mM acetylthiocholine iodide in water was added, and the absorbance was measured at 412 nm every 20 s for 3 min. The rate of each reaction was calculated by Microplate Manager software.
The blank percentage of inhibition of the tested compounds was determined by comparing the rate of the sample to the blank. The IC50 value was determined by nonlinear regression of the log inhibitor concentration versus the percentage of inhibition using GraphPad Prism6. Donepezil hydrochloride and tacrine were applied as the reference compounds. All samples were assayed in triplicate.

A short description of data set [2]: Cytotoxicity against MRC-5 normal embryonic lung cell. The format is cell-based. Particulars: human, MRC-5 normal embryonic lung cells; concentration of 50 μg/mL. An excerpt:
For chlorine as a substituent, the activity followed the order of ortho > meta > para. […] For fluorine as a substituent, the activity also followed the order of ortho > meta ≈ para. […].

As usually defined, the IC50 is the concentration that inhibits the measured activity by half.

T1 sequence (O42275 24-633): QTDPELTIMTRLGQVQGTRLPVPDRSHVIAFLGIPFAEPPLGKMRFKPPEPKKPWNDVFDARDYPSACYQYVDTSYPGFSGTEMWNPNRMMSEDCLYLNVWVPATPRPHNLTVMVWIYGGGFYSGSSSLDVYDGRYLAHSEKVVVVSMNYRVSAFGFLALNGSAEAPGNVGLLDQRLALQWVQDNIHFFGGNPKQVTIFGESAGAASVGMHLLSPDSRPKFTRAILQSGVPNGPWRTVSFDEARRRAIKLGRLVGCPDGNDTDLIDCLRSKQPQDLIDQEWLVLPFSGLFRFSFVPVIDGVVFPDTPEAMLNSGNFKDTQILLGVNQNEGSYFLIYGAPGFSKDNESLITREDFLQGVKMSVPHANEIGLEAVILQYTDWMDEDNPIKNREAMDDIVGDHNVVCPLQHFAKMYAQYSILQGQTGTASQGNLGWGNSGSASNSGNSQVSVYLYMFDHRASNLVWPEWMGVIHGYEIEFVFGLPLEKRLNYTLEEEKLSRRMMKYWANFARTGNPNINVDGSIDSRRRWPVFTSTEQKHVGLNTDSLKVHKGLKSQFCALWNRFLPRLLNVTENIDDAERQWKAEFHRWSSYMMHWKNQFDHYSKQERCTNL

With `COc1cc2cc(NC(=O)c3cc[n+](Cc4cccc(F)c4F)cc3)c(=O)oc2cc1OC.[Br-]` [compound 9h], in data set [1], the “fold lower IC50 than donepezil hydrochloride” value came to 35 fold, the “fold lower IC50 than tacrine” value came out at 124 fold and the half-inhibitory concentration (IC50) was 1.53 ± 0.01 nM. In data set [2], this compound came in with a cytotoxicity at 50 μg/mL of 0%. The compound `COc1cc2cc(NC(=O)c3cc[n+](Cc4ccc(Cl)cc4)cc3)c(=O)oc2cc1OC` [compound 9d] registered a 50% inhibitory concentration (IC50) in data set [1] of 293 ± 13.6 nM.

In data set [1], `COc1cc2cc(NC(=O)c3cc[n+](Cc4ccccc4)cc3)c(=O)oc2cc1OC` [compound 9a] showed an IC50 of 12.5 ± 0.71 nM.

In turn, `O=C(Nc1cc2ccccc2oc1=O)c1cc[n+](Cc2ccccc2)cc1` [compound 4a] registered a half-maximal inhibitory concentration (IC50) in data set [1] of 71.9 ± 3.4 nM. Same read-out and setting: next, `COc1cc2cc(NC(=O)c3cc[n+](Cc4c(F)cccc4F)cc3)c(=O)oc2cc1OC` [compound 9i]: 2.43 ± 0.18 nM. Still for that read-out and setting: the figure for `COc1cc2cc(NC(=O)c3cc[n+](Cc4cccc(F)c4)cc3)c(=O)oc2cc1OC` [compound 9f] is 5.04 ± 0.26 nM; for `COc1cc2cc(NC(=O)c3cc[n+](Cc4ccc(F)cc4)cc3)c(=O)oc2cc1OC` [compound 9g] it is 5.31 ± 0.38 nM.

`COc1cc2cc(NC(=O)Cc3cc[n+](Cc4ccccc4)cc3)c(=O)oc2cc1OC` [compound 10a] yielded a concentration for half-maximal inhibition (IC50) in data set [1] of 1087.7 ± 0.05 nM. Take `O=C(Cc1cc[n+](Cc2ccccc2)cc1)Nc1cc2ccccc2oc1=O` [compound 5a]: the inhibition at 1 µM in data set [1] was 10%.

As for `COc1cc2cc(NC(=O)c3cc[n+](Cc4ccccc4F)cc3)c(=O)oc2cc1OC` [compound 9e], in data set [1], the IC50 is 3.05 ± 0.28 nM. As for `COc1cc2cc(NC(=O)c3cc[n+](Cc4ccccc4Cl)cc3)c(=O)oc2cc1OC` [compound 9b], 6.03 ± 0.18 nM corresponded to half-maximal inhibition in data set [1] (IC50).

The compound `COc1cc2cc(NC(=O)c3cc[n+](Cc4cccc(Cl)c4)cc3)c(=O)oc2cc1OC` [compound 9c] gave an IC50 in data set [1] of 11.5 ± 0.63 nM. For the compound `COc1cc2cc(NC(=O)Cc3ccncc3)c(=O)oc2cc1OC` [compound 10], in data set [1], the inhibition at 1 µM is below 10%.

Consider `Nc1cc2ccccc2oc1=O` [compound 3, 3-aminocoumarin], for which the inhibition at 1 µM in data set [1] was found to be 12%.

`COc1cc2cc(N)c(=O)oc2cc1OC` [compound 8]: the inhibition at 1 µM in data set [1] amounted to 5%.

`O=C(Cc1ccncc1)Nc1cc2ccccc2oc1=O` [compound 5]: the inhibition at 1 µM in data set [1] is below 10%. As to `COc1cc2cc(NC(=O)c3ccncc3)c(=O)oc2cc1OC` [compound 9], the inhibition at 1 µM in data set [1] is below 10%.

Values taken from article PMC6204823, “Synthesis of 3-aminocoumarin-N-benzylpyridinium conjugates with nanomolar inhibitory activity against acetylcholinesterase” (Beilstein Journal of Organic Chemistry, 2018).
